# In paper PMC11583597, “Brain uptake pharmacokinetics of albiglutide, dulaglutide, tirzepatide, and DA5-CH in the search for new treatments of Alzheimer’s and Parkinson’s diseases” (Tissue Barriers, 2023):
# Design: species or system male CD-1 mice
# Details: mouse, in vivo, iv
# Procedure: Following anesthetization, the jugular vein and right carotid artery were exposed. Mice were given a jugular vein injection of 0.2 ml BSA-LR containing 3 × 10^5 cpm-1×10^6 cpm of an ^125I/^14C-labeled IRA and 5 × 10^5 cpm of ^99mTc-Alb. Blood samples were collected from the carotid artery at various time points from 1 to 60 min after iv injection (see Figure 1). Mice were then decapitated, and their brains were removed and weighed. After clotting, the arterial blood was centrifuged at 3200 ×g for 10 min. Levels of radioactivity in serum (50 μl) and brain were measured in a gamma counter for ^125I and ^99mTc for 3 min. After ^99mTc decay, ^14C-DA5-CH samples were solubilized with Solvable (Sigma), transferred to scintillation vials containing Ecoscint (National Diagnostics) and ^14C was measured in a beta counter. Sample injection checks were taken throughout the course of the study to calculate the mean injected cpm/mouse. To determine the rate of ^125I/^14C-IRA clearance from the serum, the results were expressed as the percentage of an injected dose in each ml of serum (%Inj/ml), which was calculated by dividing the cpm in a ml of serum (cpm/ml serum) by the cpm injected into the mouse (cpm/Inj):
# (2) %Inj/ml=100×cpm/mlserum/meancpm/Inj
# The log(%Inj/ml) was plotted against time to calculate the rate of clearance from the serum. To calculate the half-time clearance in minutes, the inverse slope […] of the curve for each IRA was multiplied by 0.301 (log10[2]). The blood and brain cpm data were used for the measurement of brain influx and initial volume of distribution in brain as described in Section 2.7.
structure (smiles),measurement,value
CC[C@H](C)[C@H](NC(=O)[C@H](CC(C)C)NC(=O)[C@H](Cc1c[nH]c2ccccc12)NC(=O)[C@H](CCC(N)=O)NC(=O)[C@@H](NC(=O)[C@H](Cc1ccccc1)NC(=O)[C@H](C)NC(=O)[C@H](CCCCNC(=O)COCCOCCNC(=O)COCCOCCNC(=O)CC[C@H](NC(=O)CCCCCCCCCCCCCCCCCCC(=O)O)C(=O)O)NC(=O)[C@H](CCC(N)=O)NC(=O)[C@H](C)NC(=O)[C@@H](NC(=O)[C@H](CCCCN)NC(=O)[C@H](CC(=O)O)NC(=O)[C@H](CC(C)C)NC(=O)C(C)(C)NC(=O)[C@@H](NC(=O)[C@H](CO)NC(=O)[C@H](Cc1ccc(O)cc1)NC(=O)[C@H](CC(=O)O)NC(=O)[C@H](CO)NC(=O)[C@@H](NC(=O)[C@H](Cc1ccccc1)NC(=O)[C@@H](NC(=O)CNC(=O)[C@H](CCC(=O)O)NC(=O)C(C)(C)NC(=O)[C@@H](N)Cc1ccc(O)cc1)[C@@H](C)O)[C@@H](C)O)[C@@H](C)CC)[C@@H](C)CC)C(C)C)C(=O)N[C@@H](C)C(=O)NCC(=O)NCC(=O)N1CCC[C@H]1C(=O)N[C@@H](CO)C(=O)N[C@@H](CO)C(=O)NCC(=O)N[C@@H](C)C(=O)N1CCC[C@H]1C(=O)N1CCC[C@H]1C(=O)N1CCC[C@H]1C(=O)N[C@@H](CO)C(N)=O [Tirzepatide],Half-Time Serum Clearance (t1/2),30.62 min
